Where two headings read alike, the source gives them in different places.
Legend:
IRAK4 = IRAK4 (Homo sapiens (Human), UniProt Q9NWZ3); assay: IRAK4 Inhibition Assay; type: biochemical; details: ATP 500 μM; IRAK4 0.6 nM; 60 min at room temperature
Protocol: The assays were performed in U-bottom 384-well plates. […] The reaction was initiated by the combination of IRAK4 with substrates and test compounds. The reaction was incubated at room temperature for 60 min. and terminated by adding 45 μL of 35 mM EDTA to each sample. The reaction mixture was analyzed on the Caliper LABCHIP® 3000 (Caliper, Hopkinton, Mass.) by electrophoretic separation of the fluorescent substrate and phosphorylated product.

[1] = tested on: TLR2 induced IL-6 in peripheral blood mononuclear cells (PBMCs); assay: PBMC TLR2 Induced IL-6 Assay; type: cell-based, human; details: human PBMCs, 10 μg/ml lipoteichoic acid for 5 hours, IL-6 by ELISA; for IC50: value without asterisk, read-out: Cell IC50; for EC50: EC50 determinations are indicated with an asterisk, read-out: Cell EC50 (asterisk)
Protocol: Peripheral blood mononuclear cells (PBMCs) were isolated from human blood containing the anti-coagulant EDTA (2.5 mM) by centrifugation over a FICOLL® gradient. PBMCs (250000 cells/well) were cultured in assay media (RPMI with 10% heat inactivated FCS) with compounds for 30 minutes at 37° C. in a 5% CO2 incubator. Following pretreatment with compounds, cells were stimulated for 5 hours with 10 μg/ml lipoteichoic acid (Invivogen, San Diego, Calif.), a TLR2 agonist. At the end of the culture, plates were centrifuged at 1800 rpm for 10 minutes to pellet the cells. Supernatants were harvested and analyzed for IL-6 levels by ELISA (BD Biosciences, San Jose, Calif.). Inhibition was calculated as either an IC50 or EC50. EC50 determinations are indicated with an asterisk.

Sequence of IRAK4 (Q9NWZ3 whole entry, species assumed): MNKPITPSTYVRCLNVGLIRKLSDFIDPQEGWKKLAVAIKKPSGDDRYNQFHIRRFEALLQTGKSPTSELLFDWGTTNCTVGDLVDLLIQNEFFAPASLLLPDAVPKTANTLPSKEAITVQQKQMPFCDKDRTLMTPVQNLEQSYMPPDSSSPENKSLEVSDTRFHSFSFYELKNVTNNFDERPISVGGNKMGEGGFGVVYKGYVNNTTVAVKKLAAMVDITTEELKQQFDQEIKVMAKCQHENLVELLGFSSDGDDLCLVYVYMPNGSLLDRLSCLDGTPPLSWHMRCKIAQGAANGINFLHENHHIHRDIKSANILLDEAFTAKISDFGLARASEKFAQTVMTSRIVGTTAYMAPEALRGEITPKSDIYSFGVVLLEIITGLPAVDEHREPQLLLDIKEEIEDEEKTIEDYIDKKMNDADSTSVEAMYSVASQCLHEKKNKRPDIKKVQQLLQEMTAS

Structure (SMILES) | IC50 (IRAK4) [nM] | IC50 ([1]; Homo sapiens, PBMC, 5 h) [nM] | IC50 [1] [nM] | EC50 ([1]; Homo sapiens, PBMC, 5 h) [nM]
CC(C)Nc1cc(Nc2ccc3ncsc3n2)ncc1C(=O)NCC(F)(F)C(C)(C)O [Example 313] | 3.4 | 73 | – | –
CC(C)Nc1cc(Nc2ccc3ncsc3c2)ncc1C(=O)NC[C@@H](F)C(O)C1CC1 (stereo partly drawn) [Example 16] | 5.2 | – | 595 | –
O=C(Nc1ccc(Cn2cncn2)cc1)c1cnc(Nc2ccc3ncsc3c2)cc1NC1CCCC1 [Example 156] | 9.9 | 502 | – | –
CC(C)(O)C(F)CNC(=O)c1cnc(Nc2ccc3ncsc3c2)cc1NC1CC(C(F)F)C1 (stereo not drawn) [Example 361, 4-(3-(difluoromethyl)cyclobutylamino)-6-(3a,27a-dihydrobenzo[d]thiazol-6-ylamino)-N-(2-fluoro-3-hydroxy-3-methylbutyl)nicotinamide] | 6.9 | – | 176 | –
CC(C)Nc1cc(Nc2ccc3nnccc3c2)ncc1C(=O)NC[C@@H](F)C(C)(C)O [Example 119] | 21.7 | 587 | – | –
CC(C)(F)CNc1cc(Nc2ccn3ncc(F)c3n2)ncc1C(=O)NC[C@@H](F)C(C)(C)O [Example 257] | 3.1 | 321 | – | –
CC(C)(O)[C@H](F)CNC(=O)c1cnc(Nc2ccc3ncsc3c2)cc1NC12CCC(O)(CC1)C2 [Example 133] | 2 | 230 | – | –
CC(C)(O)[C@H](F)CNC(=O)c1cnc(Nc2ccc3ncccc3c2)cc1NC1CCCC1F (stereo partly drawn) [Example 351] | 5.9 | 227 | – | –
CC(C)(O)[C@H](F)CNC(=O)c1cnc(Nc2ccc3ncsc3c2)cc1NC1CC(F)(F)C1 [Example 121] | 2 | 345 | – | –
CC(O)([C@H](F)CNC(=O)c1cnc(Nc2ccc3ncsc3c2)cc1NC1CC1)C(F)(F)F (stereo partly drawn) [Example 20] | 4.9 | – | 562 | –
CC(C)(O)[C@H](F)CNC(=O)c1cnc(Nc2ccc3ncsc3c2)cc1N[C@H]1CCCC(O)C1 (stereo partly drawn) [Example 327, 6-(benzo[d]thiazol-6-ylamino)-N—((R)-2-fluoro-3-hydroxy-3-methylbutyl)-4-(3-hydroxycyclohexylamino)nicotinamide] | 9.7 | – | 1000 | –
CC(C)Nc1cc(Nc2ccc3ncoc3c2)ncc1C(=O)NC[C@@H](F)C(O)C(C)C (stereo partly drawn) [Example 24] | 4 | 468 | – | –
CC(C)(O)[C@H](F)CNC(=O)c1cnc(Nc2ccc3ncsc3c2)cc1N[C@@H]1CCCC1F (stereo partly drawn) [Example 343] | 3 | – | 114 | –
CC(C)(O)[C@H](F)CNC(=O)c1cnc(Nc2ccc3ncsc3c2)cc1NCC1CCCO1 (stereo partly drawn) [Example 94] | 13 | – | 339 | –
CC(C)(O)[C@H](F)CNC(=O)c1cnc(Nc2ccc3ncsc3c2)cc1NC(C1CC1)C1CC1 [Example 101] | 54.8 | 570 | – | –
CC(C)(O)[C@H](F)CNC(=O)c1cnc(Nc2nc3scnc3cc2F)cc1NC1CCOCC1F (stereo partly drawn) [Example 470] | 3.6 | – | 635 | –
CC(C)(C)Nc1cc(Nc2ccc3ncsc3c2)ncc1C(=O)NC[C@@H](F)C(C)(C)O [Example 83] | 11.5 | 133 | – | –
CC(C)(O)[C@H](F)CNC(=O)c1cnc(Nc2ccc3ncsc3c2)cc1Nc1ncc(CO)s1 [Example 416] | 1.8 | 255 | – | –
CC(C)Nc1cc(Nc2ccc3ncsc3c2)ncc1C(=O)N[C@H]1CC[C@H](C(N)=O)CC1 [Example 228] | 2.4 | 392 | – | –
CC(C)(O)[C@H](F)CNC(=O)c1cnc(Nc2ccc3ncc(C#N)cc3n2)cc1NC1CCC(F)(F)C1 (stereo partly drawn) [Example 406] | 11.8 | – | 1320 | –
CC(C)(O)[C@H](F)CNC(=O)c1cnc(Nc2ccc3nccnc3c2)cc1NC1CCCCCC1 [Example 88] | 9 | 457 | – | –
CC(C)(O)[C@H](F)CNC(=O)c1cnc(Nc2ccc3ncsc3c2)cc1NC1CCC(F)C1 (single isomer, unassigned) [Example 364, 6-(benzo[d]thiazol-6-ylamino)-N-(2-fluoro-3-hydroxy-3-methylbutyl)-4-(3-fluorocyclopentylamino)nicotinamide] | 3.6 | – | 92 | –
CC(C)Nc1cc(Nc2ccc3ncsc3c2)ncc1C(=O)NC1CCc2nnnn2CC1 (stereo not drawn) [Example 527, 6-(benzo[d]thiazol-6-ylamino)-4-(isopropylamino)-N-(6,7,8,9-tetrahydro-5H-tetrazolo[1,5-a]azepin-7-yl)nicotinamide] | 7.7 | – | – | 320
CC(C)(O)[C@H](F)CNC(=O)c1cnc(Nc2nc3scnc3cc2F)cc1NC1CCCOC1 (stereo partly drawn) [Example 474] | 2.8 | – | 204 | –

The next lines start with results.

IC50 (IRAK4) [nM] | Structure (SMILES) | IC50 ([1]; Homo sapiens, PBMC, 5 h) [nM] | IC50 [1] [nM] | EC50 ([1]; Homo sapiens, PBMC, 5 h) [nM]
9 | CC(C)Nc1cc(Nc2ccc3ncsc3c2)ncc1C(=O)NCCN1CCOCC1 [Example 402] | 357 | – | –
1.8 | CC(C)(O)[C@H](F)CNC(=O)c1cnc(Nc2ccc3ncc(C#N)cc3n2)cc1NC1CCCC1(F)F (stereo partly drawn) [Example 441] | 28 | – | –
3.3 | CC(C)(O)[C@H](F)CNC(=O)c1cnc(Nc2ccn3ncc(F)c3n2)cc1NC1CC(F)(F)C1 [Example 265] | 217 | – | –
4.2 | O=C(NC1CCC(O)CC1)c1cnc(Nc2ccc3ncsc3c2)cc1NC1CCCC1 (stereo not drawn) [Example 157] | 836 | – | –
3.1 | CC(C)(O)[C@H](F)CNC(=O)c1cnc(Nc2ccn3nccc3n2)cc1NC1CCOCC1 [Example 237] | 222 | – | –
8.5 | CC(C)Nc1cc(Nc2ccc3ncsc3c2)ncc1C(=O)NC1CCc2[nH]ncc2C1 (stereo not drawn) [Example 494] | – | – | 209
4.1 | CC(O)([C@H](F)CNC(=O)c1cnc(Nc2ccc3ncsc3c2)cc1N[C@@H]1CCC[C@H]1O)C(F)(F)F (stereo partly drawn) [Example 333] | – | 152 | –
6.3 | CC(C)(O)[C@H](F)CNC(=O)c1cnc(Nc2ccc3ncc(C#N)cc3n2)cc1NC1CCC(F)C1 (stereo partly drawn) [Example 413] | – | 226 | –
4.2 | CC(=O)N[C@H]1CC[C@H](NC(=O)c2cnc(Nc3ccc4ncsc4c3)cc2N[C@H]2CCOC[C@@H]2F)CC1 [Example 511] | 611 | – | –
2.1 | CC(C)(O)[C@H](F)CNC(=O)c1cnc(Nc2ccc3ncc(F)cc3n2)cc1NC1CC1 [Example 429] | 128 | – | –
3.2 | CC(C)(O)[C@H](F)CNC(=O)c1cnc(Nc2nc3ccnn3cc2F)cc1NC1CCC(F)C1 (stereo partly drawn) [Example 410] | – | 340 | –
17.4 | CC(=O)N[C@H]1CC[C@H](NC(=O)c2cnc(Nc3nc4ccnn4cc3F)cc2NC(C)C)CC1 [Example 512] | 602 | – | –
2.9 | O=C(NC1CCC(O)CC1)c1cnc(Nc2ccc3ncsc3c2)cc1NC1CCCC1F (stereo not drawn) [Example 353] | – | 112 | –
18.2 | CNC(=O)c1cnc(Nc2nc3ccc(Cl)nc3s2)cc1NC(C)C [Example 4, 6-(5-chlorothiazolo[5,4-b]pyridin-2-ylamino)-4-(isopropylamino)-N-methylnicotinamide] | 639 | – | –
4.2 | O=C(NCCN1CCCC1)c1cnc(Nc2ccc3ncsc3c2)cc1NC1CCCC1 [Example 151] | 191 | – | –
34.9 | CC(C)(O)[C@H](F)CNC(=O)c1cnc(Nc2ccc3ncsc3c2)cc1NCCN1CCOCC1 [Example 164] | 388 | – | –
4.8 | CC(CCF)Nc1cc(Nc2nc3ccnn3cc2F)ncc1C(=O)NC[C@@H](F)C(C)(C)O (stereo partly drawn) [Example 502] | – | – | 144
3.1 | CC(C)(C)CNc1cc(Nc2ccc3nccn3n2)ncc1C(=O)NC[C@@H](F)C(C)(C)O [Example 275] | 335 | – | –
17.9 | CC(C)(O)[C@H](F)CNC(=O)c1cnc(Nc2ccc3ncsc3c2)cc1NCCO [Example 161] | 577 | – | –
3.1 | CC(C)Nc1cc(Nc2ccc3ncncc3c2)ncc1C(=O)NC[C@@H](F)C(C)(C)O [Example 48] | 511 | – | –
3.2 | Cc1nc2cc(F)c(Nc3cc(NC4CCCC4F)c(C(=O)NC[C@@H](F)C(C)(C)O)cn3)cc2s1 (stereo partly drawn) [Example 347] | 327 | – | –
4.9 | CCOC(=O)NC12CCC(Nc3cc(Nc4ccc5ncsc5c4)ncc3C(=O)NC[C@@H](F)C(C)(C)O)(CC1)C2 [Example 397] | 197 | – | –
6.1 | Cc1cc2nc(Nc3cc(NC4CCC(F)C4)c(C(=O)NC[C@@H](F)C(C)(C)O)cn3)ccn2n1 (single isomer, unassigned) [Example 381] | 376 | – | –
5.6 | CNC(=O)c1ccc(CCNC(=O)c2cnc(Nc3ccc4ncsc4c3)cc2NC(C)C)cc1 [Example 12] | 311 | – | –
2.7 | CC(C)(O)[C@H](F)CNC(=O)c1cnc(Nc2ccc3ncncc3c2)cc1NC1CCC1 [Example 73] | 327 | – | –
2.9 | CC(C)Nc1cc(Nc2ccn3ncc(Cl)c3n2)ncc1C(=O)NC[C@@H](F)C(C)(C)O [Example 262] | – | 141 | –
13.8 | CC(=O)N[C@@H](C)CCNC(=O)c1cnc(Nc2ccc3ncsc3c2)cc1NC(C)C [Example 178] | 405 | – | –
